In patent US20250282794A1 (CURADEV PHARMA LTD, priority 2022, published 2025):
Structures can show the parent of a compound that is named as a salt.

molecular target: recombinant full length HPK-1 enzyme (Homo sapiens (Human), UniProt Q92918); experiment: HPK-1 biochemical enzyme assay (ADP-Glo kinase inhibition); details: recombinant full length HPK-1 6.8 nM, 10 μM ATP, 12.5 μM MBP, 30 mins at 25° C.
Method: HPK-1 biochemical enzyme assay
Compound inhibitory potency was measured in an HPK-1 kinase inhibition assay. Briefly, recombinant full length HPK-1 enzyme (6.8 nM) was incubated with 10 μM ATP and 12.5 μM swine myelin basic protein (MBP) for 30 mins. at 25° C. in the presence of various concentrations of test compound or vehicle in 40 mM Tris.Cl pH7.4 buffer containing 20 mM MgCl2, 50 μM DTT and 0.1 mg/mL BSA. Reactions were quenched and reaction mixtures were then analyzed by an ADP-Glo kit which measures the formed ADP. The percent inhibition was calculated from the substrate conversion considering no enzyme control reactions for 100% inhibition and vehicle only reactions for 0% inhibition. The compounds were dissolved in DMSO and evaluated at 10 concentrations to determine an IC50 value.
In the below table A denotes an HPK-1 IC50≤10 nM, B denotes an HPK-1 IC50>10 nM but≤100 nM and C denotes an HPK-1 IC50>100 nM but≤1000 nM.

Chain of recombinant full length HPK-1 enzyme (Q92918 whole entry, species assumed): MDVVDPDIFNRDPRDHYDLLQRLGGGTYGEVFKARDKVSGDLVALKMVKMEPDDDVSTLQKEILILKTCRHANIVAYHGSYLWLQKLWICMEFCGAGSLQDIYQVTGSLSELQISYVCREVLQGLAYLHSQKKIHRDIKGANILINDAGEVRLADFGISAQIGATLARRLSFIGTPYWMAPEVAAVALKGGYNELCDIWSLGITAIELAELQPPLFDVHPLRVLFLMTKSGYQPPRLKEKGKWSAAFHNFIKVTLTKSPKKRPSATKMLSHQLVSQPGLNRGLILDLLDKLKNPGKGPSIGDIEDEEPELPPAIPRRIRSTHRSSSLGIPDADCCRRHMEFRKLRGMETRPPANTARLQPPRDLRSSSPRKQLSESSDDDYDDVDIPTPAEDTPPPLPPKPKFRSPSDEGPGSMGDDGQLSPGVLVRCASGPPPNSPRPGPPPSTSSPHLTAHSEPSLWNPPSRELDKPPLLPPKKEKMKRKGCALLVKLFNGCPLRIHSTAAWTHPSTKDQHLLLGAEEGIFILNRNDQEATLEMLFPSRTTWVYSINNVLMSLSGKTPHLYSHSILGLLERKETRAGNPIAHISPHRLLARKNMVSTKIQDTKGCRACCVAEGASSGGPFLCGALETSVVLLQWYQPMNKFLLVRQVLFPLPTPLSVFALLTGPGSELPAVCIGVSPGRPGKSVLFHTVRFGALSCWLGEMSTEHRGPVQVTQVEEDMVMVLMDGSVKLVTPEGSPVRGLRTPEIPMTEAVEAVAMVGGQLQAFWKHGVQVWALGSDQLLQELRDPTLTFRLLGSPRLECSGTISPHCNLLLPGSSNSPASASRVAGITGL

Structure (SMILES)	IC50 [nM]
Cc1c(Nc2cc[nH]c(=O)c2C(=O)Nc2ccc(N3CCN(C)CC3)cc2)cnc2c1NCCO2 [Example 45, 4-((8-Methyl-2,3-dihydro-1H-pyrido[2,3-b][1,4]oxazin-7-yl)amino)-N-(4-(4-methylpiperazin-1-yl)phenyl)-2-oxo-1,2-dihydropyridine-3-carboxamide]	≤ 10
Cc1c(Nc2cc[nH]c(=O)c2C(=O)Nc2ccc(N3CCN(C)CC3)cc2)cnc2c1N(C)CCO2 [Example 93, 4-((1,8-dimethyl-2,3-dihydro-1H-pyrido[2,3-b][1,4]oxazin-7-yl)amino)-N-(4-(4-methylpiperazin-1-yl)phenyl)-2-oxo-1,2-dihydropyridine-3-carboxamide]	10 to 100
Cc1c(Nc2cc[nH]c(=O)c2C(=O)Nc2ccc(C3CCN(C)CC3)cc2)cnc2c1NCCO2 [Example 97, 4-((8-methyl-2,3-dihydro-1H-pyrido[2,3-b][1,4]oxazin-7-yl)amino)-N-(4-(1-methylpiperidin-4-yl)phenyl)-2-oxo-1,2-dihydropyridine-3-carboxamide]	≤ 10
Cc1c(Nc2cc[nH]c(=O)c2C(=O)Nc2ccc(N3CCN(C(C)C)CC3)cc2)cnc2c1NCCO2 [Example 106, N-(4-(4-isopropylpiperazin-1-yl)phenyl)-4-((8-methyl-2,3-dihydro-1H-pyrido[2,3-b][1,4]oxazin-7-yl)amino)-2-oxo-1,2-dihydropyridine-3-carboxamide]	≤ 10
CN1CCN(c2ccc(NC(=O)c3c(Nc4cnc5c(c4)NCCO5)cc[nH]c3=O)cc2)CC1 [Example 115, 4-((2,3-dihydro-1H-pyrido[2,3-b][1,4]oxazin-7-yl)amino)-N-(4-(4-methylpiperazin-1-yl)phenyl)-2-oxo-1,2-dihydropyridine-3-carboxamide.TFA]	10 to 100
Cc1c(Nc2cc[nH]c(=O)c2C(=O)Nc2ccc(N3CCN(C)CC3)cc2)cnc2c1NCC(C)O2 (centres unmarked) [Example 125, 4-((3,8-dimethyl-2,3-dihydro-1H-pyrido[2,3-b][1,4]oxazin-7-yl)amino)-N-(4-(4-methylpiperazin-1-yl)phenyl)-2-oxo-1,2-dihydropyridine-3-carboxamide]	10 to 100
Cc1c(Nc2cc[nH]c(=O)c2C(=O)Nc2ccc(N3CCN(C)CC3)cc2)cnc2c1NC(=O)CO2 [Example 126, 4-((8-methyl-2-oxo-2,3-dihydro-1H-pyrido[2,3-b][1,4]oxazin-7-yl)amino)-N-(4-(4-methylpiperazin-1-yl)phenyl)-2-oxo-1,2-dihydropyridine-3-carboxamide]	10 to 100
COc1c(Nc2cc[nH]c(=O)c2C(=O)Nc2ccc(N3CCN(C)CC3)cc2)cnc2c1NCCO2 [Example 132, 4-((8-Methoxy-2,3-dihydro-1H-pyrido[2,3-b][1,4]oxazin-7-yl)amino)-N-(4-(4-methylpiperazin-1-yl)phenyl)-2-oxo-1,2-dihydropyridine-3-carboxamide]	10 to 100
Cc1c(Nc2cc[nH]c(=O)c2C(=O)Nc2ccc(C3CCOCC3)cc2)cnc2c1NCCO2 [Example 133, 4-((8-methyl-2,3-dihydro-1H-pyrido[2,3-b][1,4]oxazin-7-yl)amino)-2-oxo-N-(4-(tetrahydro-2H-pyran-4-yl)phenyl)-1,2-dihydropyridine-3-carboxamide]	10 to 100
Cc1c(Nc2cc[nH]c(=O)c2C(=O)Nc2ccc(N3CCN(C(C)C)CC3)c(F)c2)cnc2c1NCCO2 [Example 134, N-(3-fluoro-4-(4-isopropylpiperazin-1-yl)phenyl)-4-((8-methyl-2,3-dihydro-1H-pyrido[2,3-b][1,4]oxazin-7-yl)amino)-2-oxo-1,2-dihydropyridine-3-carboxamide]	≤ 10
CCN1CCN(c2ccc(NC(=O)c3c(Nc4cnc5c(c4C)NCCO5)cc[nH]c3=O)cc2)CC1 [Example 136, N-(4-(4-ethylpiperazin-1-yl)phenyl)-4-((8-methyl-2,3-dihydro-1H-pyrido[2,3-b][1,4]oxazin-7-yl)amino)-2-oxo-1,2-dihydropyridine-3-carboxamide]	≤ 10
Cc1c(Nc2cc[nH]c(=O)c2C(=O)Nc2ccc(N3CCN(C(=O)N(C)C)CC3)cc2)cnc2c1NCCO2 [Example 137, N,N-Dimethyl-4-(4-(4-((8-methyl-2,3-dihydro-1H-pyrido[2,3-b][1,4]oxazin-7-yl)amino)-2-oxo-1,2-dihydropyridine-3-carboxamido)phenyl) piperazine-1-carboxamide]	≤ 10
Cc1c(Nc2cc[nH]c(=O)c2C(=O)Nc2ccc(N3CCS(=O)(=O)CC3)cc2)cnc2c1NCCO2 [Example 138, N-(4-(1,1-dioxidothiomorpholino)phenyl)-4-((8-methyl-2,3-dihydro-1H-pyrido[2,3-b][1,4]oxazin-7-yl)amino)-2-oxo-1,2-dihydropyridine-3-carboxamide]	≤ 10
Cc1c(Nc2cc[nH]c(=O)c2C(=O)Nc2ccc(N3CCNCC3)cc2)cnc2c1NCCO2 [Example 139, 4-((8-methyl-2,3-dihydro-1H-pyrido[2,3-b][1,4]oxazin-7-yl)amino)-2-oxo-N-(4-(piperazin-1-yl)phenyl)-1,2-dihydropyridine-3-carboxamide]	≤ 10

The remaining lines, values ahead:

IC50 [nM]	Structure (SMILES)
≤ 10	Cc1c(Nc2cc[nH]c(=O)c2C(=O)Nc2ccc(N3CCN(C)CC3)c(F)c2)cnc2c1NCCO2 [Example 96, N-(3-fluoro-4-(4-methylpiperazin-1-yl)phenyl)-4-((8-methyl-2,3-dihydro-1H-pyrido[2,3-b][1,4]oxazin-7-yl)amino)-2-oxo-1,2-dihydropyridine-3-carboxamide]
10 to 100	Cc1c(Nc2nc[nH]c(=O)c2C(=O)Nc2ccc(N3CCN(C)CC3)cc2)cnc2c1NCCO2 [Example 98, 4-((8-Methyl-2,3-dihydro-1H-pyrido[2,3-b][1,4]oxazin-7-yl)amino)-N-(4-(4-methylpiperazin-1-yl)phenyl)-6-oxo-1,6-dihydropyrimidine-5-carboxamide]
≤ 10	Cc1c(Nc2cc[nH]c(=O)c2C(=O)Nc2ccc(N3CCN(CCO)CC3)cc2)cnc2c1NCCO2 [Example 105, N-(4-(4-(2-hydroxyethyl)piperazin-1-yl)phenyl)-4-((8-methyl-2,3-dihydro-1H-pyrido[2,3-b][1,4]oxazin-7-yl)amino)-2-oxo-1,2-dihydropyridine-3-carboxamide]
10 to 100	CN1CCN(c2ccc(NC(=O)c3c(Nc4cnc5c(c4)N(C)CCO5)cc[nH]c3=O)cc2)CC1 [Example 118, 4-((1-methyl-2,3-dihydro-1H-pyrido[2,3-b][1,4]oxazin-7-yl)amino)-N-(4-(4-methylpiperazin-1-yl)phenyl)-2-oxo-1,2-dihydropyridine-3-carboxamide]
10 to 100	Cc1c(Nc2cc[nH]c(=O)c2C(=O)Nc2ccc(-c3ccccn3)cc2)cnc2c1NCCO2 [Example 130, 4-((8-methyl-2,3-dihydro-1H-pyrido[2,3-b][1,4]oxazin-7-yl)amino)-2-oxo-N-(4-(pyridin-2-yl)phenyl)-1,2-dihydropyridine-3-carboxamide]
≤ 10	CCN1CCN(c2ccc(NC(=O)c3c(Nc4cnc5c(c4C)NCCO5)cc[nH]c3=O)cc2F)CC1 [Example 135, N-(4-(4-ethylpiperazin-1-yl)-3-fluorophenyl)-4-((8-methyl-2,3-dihydro-1H-pyrido[2,3-b][1,4]oxazin-7-yl)amino)-2-oxo-1,2-dihydropyridine-3-carboxamide]
